Results as given in patent USRE43390E1, “Pleuromutilin derivatives as antimicrobials” (GlaxoSmithKline LLC, priority 1997, dated 2012).

Tests used:
Test in all cases: antibacterial activity, MIC by standard broth dilution method in microtitre
Format in all cases: cell-based
Escherichla coli DCU = conditions: E.c. = Escherichla coli DCU
Method: (§1) The following Table illustrates the antibacterial activities of representative mutilin 14-esters. Activities are given as minimum inhibitory concentrations in micrograms per milliliter (10^−6 g/ml), and were determined using a standard broth dilution method in microtitre.

[1] = tested on: Haemophilius influenzae Q1; conditions: H.i. = Haemophilius influenzae Q1
Method: as §1

[2] = tested on: Morazella catarrhalis Ravasio; conditions: M.c. = Morazella catarrhalis Ravasio
Method: as §1

[3] = tested on: Staphylococcus aureus Oxford; conditions: S.a. = Staphylococcus aureus Oxford
Method: as §1

[4] = tested on: Streptococcus pneumoniae 1629; conditions: S.p. = Streptococcus pneumoniae 1629
Method: as §1

| Compound | minimum inhibitory concentrations (Escherichla coli DCU) | minimum inhibitory concentrations [1] | minimum inhibitory concentrations [2] | minimum inhibitory concentrations [3] | minimum inhibitory concentrations [4] |
| --- | --- | --- | --- | --- | --- |
| C=C[C@]1(C)C[C@@H](OC(=O)CSC2CCN(C)CC2)[C@]2(C)[C@H](C)CC[C@]3(CCC(=O)[C@H]32)[C@@H](C)[C@@H]1O [Example 15, Mutilin-14-(1-methylpiperid-4-ylsulfanyl)-acetate] | 64 micrograms per milliliter | 0.5 micrograms per milliliter | ≦0.06 micrograms per milliliter | ≦0.06 micrograms per milliliter | ≦0.06 micrograms per milliliter |
| C=C[C@]1(C)C[C@@H](OC(=O)CSC2CC3CCC(C2)N3C)[C@]2(C)C(C)CC[C@]3(CCC(=O)[C@H]32)[C@@H](C)[C@@H]1O (stereo partly drawn) [Example 50, Mutilin 14-(exo-8-methyl-8-azabicyclo[3.2.1]oct-3-ylsulfanyl)-acetate] | 32 micrograms per milliliter | 0.5 micrograms per milliliter | ≦0.06 micrograms per milliliter | ≦0.06 micrograms per milliliter | ≦0.06 micrograms per milliliter |
| C=C[C@]1(C)C[C@@H](OC(=O)CO)[C@]2(C)[C@H](C)CC[C@]3(CCC(=O)[C@H]32)[C@@H](C)[C@@H]1O [Pleuomutilin, Pleuromutilin] | >64 micrograms per milliliter | 2 micrograms per milliliter | 0.5 micrograms per milliliter | 2 micrograms per milliliter | 8 micrograms per milliliter |
| C=C[C@]1(C)C[C@@H](OC(=O)CSCCN(CC)CC)[C@]2(C)[C@H](C)CC[C@]3(CCC(=O)[C@H]32)[C@@H](C)[C@@H]1O [Tiamulia, Tiamulin, reference compound] | >64 micrograms per milliliter | 2 micrograms per milliliter | 0.125 micrograms per milliliter | 0.25 micrograms per milliliter | 0.25 micrograms per milliliter |
| C=C[C@]1(C)C[C@@H](OC(=O)CSC23CCN(CC2)CC3)[C@]2(C)[C@H](C)CC[C@]3(CCC(=O)[C@H]32)[C@@H](C)[C@@H]1O [Example 1, Mutilin 14-(quinuclidin-4-yl-sulfanyl)-acetate] | 16 micrograms per milliliter | 0.25 micrograms per milliliter | ≦0.06 micrograms per milliliter | ≦0.06 micrograms per milliliter | ≦0.06 micrograms per milliliter |
